Converted amounts (≈) assume the structure as drawn. Like-named read-outs stand apart in the source and are kept apart here.
Tests used:
[1] = Cytotoxicity against THP1 macrophage cell lines; type: cell-based; conditions: human
[2] = test system: M. tuberculosis (Mtb) (H37Rv, ATCC 27294); assay: microbe, parasite or virus in culture; type: cell-based; conditions: Mycobacterium tuberculosis
[3] = In vivo lung PK after oral dosing; conditions: female, CD-1, mouse
[4] = female, CD-1, mouse, in vivo, iv, 5 mg/kg
[5] = physchem; conditions: pH 6.8, aqueous buffer, thermodynamic from solid
[6] = female, CD-1, mouse, in vivo, po
[7] = in vivo; conditions: female, CD-1, mouse, iv; for clearance: i.v. CL
[8] = in vivo; conditions: female, CD-1, mouse, po
[9] = test system: Mtb H37Rv; assay: In vivo mouse efficacy, established murine TB model; design: species or system Balb/c mice; conditions: for Efficacy compared with PA-824, in words: significance at P<0.05; for log reduction at 100 mg/kg / log reduction at 25 mg/kg: Mycobacterium tuberculosis, H37RV, po, 672 h, read-out: Mean log lung CFU reduction ± SEM compared to untreated controls; for Dose dependence of efficacy, in words: 25 versus 100 mg/kg oral daily for 4 weeks
Experimental: In vivo mouse efficacy studies were determined after intranasal infection of Balb/c mice with 10^3 cfu Mtb H37Rv. Treatment was initiated 4 weeks after infection. Compounds were orally administered in CM-2 formulation for 4 weeks daily. Bacterial loads were determined at 2 and 4 weeks post treatment. Statistical analysis was done by a one-way analysis of variance, followed by a multiple comparison analysis of variance by a one-way Tukey test (GraphPad Prism, version 5.02, San Diago, California USA, www.graphpad.com). Differences were considered statistically significant at the 95% level of confidence.

[10] = in vivo; conditions: female, CD-1, mouse, po; remark: listed apart in the source
[11] = in vitro; conditions: human, Caco-2
[12] = in vitro; conditions: mouse, plasma
[13] = In vivo plasma PK after intravenous dosing; conditions: mice; for half-life: female, CD-1, mouse, plasma, iv, T1/2 (i.v)
[14] = physchem
[15] = In vivo plasma PK after oral dosing in CM-2 formulation; conditions: for half-life: female, CD-1, mouse, plasma, po
[16] = test system: CaCo-2 colon carcinoma cell lines
[17] = design: method as in PMID 19528280; conditions: healthy subjects, oral daily doses for 7 days; cited from earlier work
[18] = female, CD-1, mouse, in vivo, po, 25 mg/kg
[19] = design: method as in PMID 16870750; conditions: mice dosed for 2 months; cited from earlier work
[20] = test system: Mtb; conditions: murine model, cited from earlier work
[21] = PAMPA permeability
[22] = 25 mg/kg, Lung to Plasma ratio AUC24
[23] = 25 mg/kg, Lung to Plasma ratio Cmax
[24] = 100 mg/kg oral daily for 4 weeks, 5 animals
[25] = 100 mg/kg oral daily for 4 weeks
[26] = 25 mg/kg oral daily for 4 weeks, 5 animals
[27] = 25 mg/kg oral daily for 4 weeks, mean value from three independent experiments (n = 15)
[28] = mouse plasma, single oral dose 25 mg/kg, CM-2

SMILES: O=[N+]([O-])c1cn2c(n1)OC1(CC1)C(OCc1ccc(OC(F)(F)F)cc1)C2 (centres unmarked) [NI-302]
- CC50 [1]: > 10 mg/L
- MIC99 [2]: 0.03 mg/L (≈ 0.0779 µM)
- half-life ([3]; 25 mg/kg): 4.1 h
- i.v. CL [4]: 0.258 L/h/kg
- PAMPA %FA: 99%
- PAMPA Log Pe: –3.6 cm/sec
- solubility [5]: 0.026 mg/mL (≈ 67.5 µM)
- Lung AUC24 ([6]; 25 mg/kg): 100.3 µg·h/g
- Lung Cmax ([6]; 25 mg/kg): 9.7 µg/g
- Vd ([7]; 5 mg/kg): 1.2 L/kg
- clearance ([7]; 5 mg/kg): 0.3 L/h/kg
- Kp [8, 22]: 0.7
- Kp [8, 23]: 0.8
- Mean log lung CFU ± SEM [9, 24]: 4.45±0.22 log CFU
- Efficacy compared with PA-824, in words [9, 25]: comparable efficacy to PA-824
- log reduction at 100 mg/kg [9, 24]: 2.17 ± 0.22
- AUC ([10]; 25 mg/kg): 144 µg·h/mL
- Cmax ([10]; 25 mg/kg): 12.9 µg/mL
- bioavailability ([10]; 25 mg/kg): 100%
- Papp A→B [11]: 451 nm/s
- Papp B→A [11]: 187 nm/s
- efflux ratio [11]: 0.4
- fraction unbound [12]: 0.043
- half-life ([13]; 5 mg/kg, i.v. dosing at 5 mg/kg): 3.7 h
- logP [14]: 3.2
- half-life ([15]; 25 mg/kg): 4.1 h

SMILES: O=C(CO[C@@H]1COc2nc([N+](=O)[O-])cn2C1)N1CCN(c2ccc(C(F)(F)F)cn2)CC1 [NI-644]
- CC50 [1]: > 10 mg/L
- MIC99 [2]: 0.09 mg/L (≈ 0.197 µM)
- half-life ([3]; 50 mg/kg): 2.9 h
- PAMPA %FA: 83%
- PAMPA Log Pe: –4.9 cm/sec
- solubility [5]: 0.014 mg/mL (≈ 30.7 µM)
- Lung AUC24 ([6]; 50 mg/kg): 38.1 µg·h/g
- Lung Cmax ([6]; 50 mg/kg): 7.5 µg/g
- Vd ([7]; 10 mg/kg): 0.7 L/kg
- clearance ([7]; 10 mg/kg): 0.57 L/h/kg
- Tmax ([8]; 50 mg/kg): 1 h
- Kp ([8]; 50 mg/kg, Lung to Plasma ratio AUC24): 0.4
- Kp ([8]; 50 mg/kg, Lung to Plasma ratio Cmax): 0.5
- Mean log lung CFU ± SEM [9, 26]: 6.18±0.03 log CFU
- Efficacy compared with PA-824, in words ([9]; 25 mg/kg oral daily for 4 weeks): significantly (P<0.05) less efficacious than PA-824
- Mean log lung CFU ± SEM [9, 24]: 6.09±0.07 log CFU
- Efficacy compared with PA-824, in words [9, 25]: significantly (P<0.05) less efficacious than PA-824
- Dose dependence of efficacy, in words [9]: no dose-dependent increase in bactericidal activity
- log reduction at 25 mg/kg [9, 26]: 0.48 to 0.89
- log reduction at 100 mg/kg [9, 24]: 0.57 ± 0.07
- AUC ([10]; 50 mg/kg): 89.5 µg·h/mL
- Cmax ([10]; 50 mg/kg): 16.2 µg/mL
- Tmax ([10]; 50 mg/kg): 1 h
- bioavailability ([10]; 50 mg/kg): 100%
- Papp A→B [11]: 28 nm/s
- Papp B→A [11]: 137 nm/s
- efflux ratio [11]: 4.8
- fraction unbound [12]: 0.1
- half-life ([13]; 10 mg/kg, i.v. dosing at 10 mg/kg): < 1 h
- T1/2 (i.v) ([13]; i.v. dosing at 10 mg/kg, 10 mg/kg): 0.9 h
- logP [14]: 2.6
- Permeability in the Caco-2 assay, in words [16]: moderate permeability
- half-life ([15]; 50 mg/kg): 3.6 h

SMILES: O=[N+]([O-])c1cn2c(n1)OC[C@@H](OCc1ccc(OC(F)(F)F)cc1)C2 [PA-824, (6S)-2-nitro-6-{[4-(trifluoromethoxy)benzyl]oxy}-6,7-dihydro-5H-imidazo[2,1-b][1, 3]oxazine, reference compound]
- CC50 ([1]; THP1 macrophage cell line, THP1 macrophage cell lines, read-out: Cytotoxicity CC50): > 10 mg/L
- MIC99 [2]: 0.3 mg/L (≈ 0.835 µM)
- half-life ([3]; 25 mg/kg): 4.8 h
- Tolerability [17]: well tolerated
- solubility [5]: 0.013 mg/mL (≈ 36.2 µM)
- Lung AUC24 ([6]; 25 mg/kg): 139.9 µg·h/g
- Lung Cmax ([6]; 25 mg/kg): 17.8 µg/g
- Plasma free fCmax [18]: 0.6 µg/mL
- Plasma accumulation [19]: absence of plasma accumulation
- Tmax ([8]; 25 mg/kg): 0.3 h
- Kp [8, 22]: 2.7
- Kp [8, 23]: 3
- fT>MIC in plasma required ([20]; for 1-log10 kill): 48%
- fT>MIC in plasma required ([20]; for 1.59 log10 kill): 77%
- fT>MIC in plasma required ([20]; for bacteriostatic effect): 22%
- Mean log lung CFU reduction ± SEM compared to untreated controls [9, 27]: 1.48 ± 0.09 log CFU
- Dose dependence of efficacy, in words [9]: dose dependent increase in efficacy
- log reduction at 25 mg/kg [9, 26]: 1.23 to 1.56
- log reduction at 25 mg/kg [9, 27]: 1.48 ± 0.09
- log reduction at 100 mg/kg [9, 24]: 1.95 ± 0.13
- log reduction at 100 mg/kg ([9]; 100 mg/kg oral daily for 4 weeks, mean value from three independent experiments (n = 15)): 2.3 ± 0.08
- AUC ([10]; 25 mg/kg): 50.9 µg·h/mL
- Papp A→B [11]: 276 nm/s
- Papp B→A [11]: 204 nm/s
- efflux ratio [11]: 0.8
- fraction unbound [12]: 0.1
- T1/2 (i.v) ([13]; i.v. dosing at 10 mg/kg): 1.6 h
- i.v. CL ([13]; i.v. dosing at 10 mg/kg): 0.726 L/h/kg
- i.v. Vss ([13]; i.v. dosing at 10 mg/kg): 1.6 L/kg
- logP [14]: 2.75
- PAMPA Log Pe ([21]; effective permeability): –4.2 cm/sec
- PAMPA %FA ([21]; fraction absorbed): 99%
- F, oral bioavailability ([15]; mice, p.o. 25 mg/kg versus i.v. 5 mg/kg (PA-824: i.v. 10 mg/kg)): 100%
- T1/2 (p.o.) [15, 28]: 2.7
- p.o. Tmax [15, 28]: 2 h
- p.o. Cmax ([15]; mouse plasma, total concentration, single oral dose 25 mg/kg, CM-2): 6.0 µg/mL

From article PMC4139342, “Pharmacokinetics-Pharmacodynamics Analysis of Bicyclic 4-Nitroimidazole Analogs in a Murine Model of Tuberculosis” (PLoS ONE, 2014)
